Assay results from patent publication US20250195521A1 (Revolution Medicines, Inc., priority 2020, published 2025).
Like-named read-outs stand apart in the source and are kept apart here.

Columns and labels:
[1] = tested on: Capan-1 cells (K-Ras G12V); test: CellTiter-Glo cell viability, Capan-1; type: cell-based, human; conditions: K-Ras G12V, 5-day treatment, read-out: Capan-1 Cell Viability IC50
In short: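 Viability is read as luminescence after five days of compound exposure, with plates first equilibrated to room temperature for roughly 30 minutes. Each signal is expressed as a percentage of the mean DMSO control, and curves are fitted by four-parameter logistic regression.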

KRAS G12C = KRAS G12C (Homo sapiens (Human), UniProt P01116+P62937, G12C); test: Ras-Raf disruption/FRET/MOA assay (BRAF RBD, Cyclophilin A); type: biochemical; conditions: read-out: KRAS G12C FRET IC50
Sequence of KRAS G12C (P01116-2 other isoform, or with tags, fused parts or gaps G12C): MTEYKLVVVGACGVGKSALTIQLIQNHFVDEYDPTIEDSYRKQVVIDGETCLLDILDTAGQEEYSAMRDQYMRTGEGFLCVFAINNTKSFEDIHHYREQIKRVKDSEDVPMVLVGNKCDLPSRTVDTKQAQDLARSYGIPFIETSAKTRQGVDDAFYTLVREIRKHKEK
Sequence of KRAS G12C (P62937 whole entry): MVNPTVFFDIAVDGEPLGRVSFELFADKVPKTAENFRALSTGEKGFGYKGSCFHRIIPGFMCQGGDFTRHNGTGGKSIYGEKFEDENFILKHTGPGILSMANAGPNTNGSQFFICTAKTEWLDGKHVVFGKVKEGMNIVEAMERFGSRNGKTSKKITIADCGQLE
Protocol: (§1) Compound is present in plate wells as a 10-point 3-fold dilution series starting at a final concentration of 30 μM. After incubation at 25° C. for 3 hours, a mixture of Anti-His Eu—W1024 and anti-GST allophycocyanin is then added to assay sample wells at final concentrations of 10 nM and 50 nM, respectively, and the reaction incubated for an additional 1.5 hours. […] Compounds that facilitate disruption of a Ras: RAF complex are identified as those eliciting a decrease in the TR-FRET ratio relative to DMSO control wells.
(§2) Disruption of B-Raf Ras-Binding Domain (BRAF^RBD) Interaction with K-Ras by Compounds of the Invention (Also Called a FRET Assay or an MOA Assay)
(§3) Note—The following protocol describes a procedure for monitoring disruption of K-Ras G12C (GMP-PNP) binding to BRAF^RBD by a compound of the invention. This protocol may also be executed substituting other Ras proteins or nucleotides.
(§4) The purpose of this biochemical assay was to measure the ability of test compounds to facilitate ternary complex formation between a nucleotide-loaded K-Ras isoform and Cyclophilin A; the resulting ternary complex disrupts binding to a BRAF^RBD construct, inhibiting K-Ras signaling through a RAF effector. Data is reported as IC50 values.
(§5) In assay buffer containing 25 mM HEPES pH 7.3, 0.002% Tween20, 0.1% BSA, 100 mM NaCl and 5 mM MgCl2, tagless Cyclophilin A, His6-K-Ras-GMPPNP, and GST-BRAF^RBD were combined in a 384-well assay plate at final concentrations of 25 μM, 12.5 nM and 50 nM, respectively. Compound was present in plate wells as a 10-point 3-fold dilution series starting at a final concentration of 30 μM. After incubation at 25° C. for 3 hours, a mixture of Anti-His Eu—W1024 and anti-GST allophycocyanin was then added to assay sample wells at final concentrations of 10 nM and 50 nM, respectively, and the reaction incubated for an additional 1.5 hours. […] Compounds that facilitate disruption of a K-Ras: RAF complex were identified as those eliciting a decrease in the TR-FRET ratio relative to DMSO control wells.

KRAS G12D = KRAS G12D (Homo sapiens (Human), UniProt P01116+P62937, G12D); test: as above; type: biochemical; conditions: read-out: KRAS G12D FRET IC50
Sequence of KRAS G12D (P01116 other isoform, or with tags, fused parts or gaps G12D): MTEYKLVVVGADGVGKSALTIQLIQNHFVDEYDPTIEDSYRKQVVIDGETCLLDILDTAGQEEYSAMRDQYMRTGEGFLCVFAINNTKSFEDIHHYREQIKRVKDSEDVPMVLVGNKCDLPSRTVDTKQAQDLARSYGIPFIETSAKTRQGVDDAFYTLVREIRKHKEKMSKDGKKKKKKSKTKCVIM
Sequence of KRAS G12D (P62937 whole entry): as the sequence (P62937 whole entry) above
Protocol: as §1, §2, §3, §4, §5

KRAS G12S = KRAS G12S (Homo sapiens (Human), UniProt P01116+P62937, G12S); test: as above; type: biochemical; conditions: read-out: KRAS G12S FRET IC50
Sequence of KRAS G12S (P01116 other isoform, or with tags, fused parts or gaps G12S): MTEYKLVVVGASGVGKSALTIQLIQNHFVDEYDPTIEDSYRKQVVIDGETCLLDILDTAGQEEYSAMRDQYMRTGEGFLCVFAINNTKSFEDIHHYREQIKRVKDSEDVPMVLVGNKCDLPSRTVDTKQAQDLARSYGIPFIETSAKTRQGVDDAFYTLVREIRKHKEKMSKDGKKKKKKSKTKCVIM
Sequence of KRAS G12S (P62937 whole entry): as the sequence (P62937 whole entry) above
Protocol: as §1, §2, §3, §4, §5

KRAS G12V = KRAS G12V (Homo sapiens (Human), UniProt P01116+P62937, G12V); test: as above; type: biochemical; conditions: read-out: KRAS G12V FRET IC50
Sequence of KRAS G12V (P01116 other isoform, or with tags, fused parts or gaps G12V): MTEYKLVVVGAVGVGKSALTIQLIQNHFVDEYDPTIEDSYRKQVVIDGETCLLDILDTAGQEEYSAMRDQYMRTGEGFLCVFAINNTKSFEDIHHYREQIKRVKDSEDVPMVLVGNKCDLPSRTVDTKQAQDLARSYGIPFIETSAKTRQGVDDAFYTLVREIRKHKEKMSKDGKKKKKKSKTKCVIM
Sequence of KRAS G12V (P62937 whole entry): as the sequence (P62937 whole entry) above
Protocol: as §1, §2, §3, §4, §5

KRAS G13C = KRAS G13C (Homo sapiens (Human), UniProt P01116+P62937, G13C); test: as above; type: biochemical; conditions: read-out: KRAS G13C FRET IC50
Sequence of KRAS G13C (P01116 other isoform, or with tags, fused parts or gaps G13C): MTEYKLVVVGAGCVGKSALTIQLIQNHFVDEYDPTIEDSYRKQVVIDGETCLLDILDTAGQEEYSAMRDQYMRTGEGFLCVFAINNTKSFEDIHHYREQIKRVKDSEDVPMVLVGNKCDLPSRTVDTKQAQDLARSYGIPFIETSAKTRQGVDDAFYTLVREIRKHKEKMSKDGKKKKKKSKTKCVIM
Sequence of KRAS G13C (P62937 whole entry): as the sequence (P62937 whole entry) above
Protocol: as §1, §2, §3, §4, §5

KRAS G13D = KRAS G13D (Homo sapiens (Human), UniProt P01116+P62937, G13D); test: as above; type: biochemical; conditions: read-out: KRAS G13D FRET data IC50
Sequence of KRAS G13D (P01116 other isoform, or with tags, fused parts or gaps G13D): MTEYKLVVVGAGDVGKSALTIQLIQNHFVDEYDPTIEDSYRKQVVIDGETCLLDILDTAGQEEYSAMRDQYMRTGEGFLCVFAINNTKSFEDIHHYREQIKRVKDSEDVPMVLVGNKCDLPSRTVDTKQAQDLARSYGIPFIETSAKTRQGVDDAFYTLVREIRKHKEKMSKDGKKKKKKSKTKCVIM
Sequence of KRAS G13D (P62937 whole entry): as the sequence (P62937 whole entry) above
Protocol: as §1, §2, §3, §4, §5

KRAS WT = KRAS WT (Homo sapiens (Human), UniProt P01116+P62937); test: as above; type: biochemical; conditions: read-out: KRAS WT FRET data IC50
Sequence of KRAS WT (P01116 other isoform, or with tags, fused parts or gaps): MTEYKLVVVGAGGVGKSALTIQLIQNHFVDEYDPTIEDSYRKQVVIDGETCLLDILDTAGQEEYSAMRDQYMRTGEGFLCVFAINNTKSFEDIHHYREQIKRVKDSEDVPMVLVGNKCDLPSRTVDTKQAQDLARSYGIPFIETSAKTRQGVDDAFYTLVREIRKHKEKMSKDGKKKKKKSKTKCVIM
Sequence of KRAS WT (P62937 whole entry): as the sequence (P62937 whole entry) above
Protocol: as §1, §2, §3, §4, §5

NRAS G12C = NRAS G12C (Homo sapiens (Human), UniProt P01111+P62937, G12C); test: as above; type: biochemical; conditions: read-out: NRAS G12C FRET data IC50
Sequence of NRAS G12C (P01111 whole entry G12C): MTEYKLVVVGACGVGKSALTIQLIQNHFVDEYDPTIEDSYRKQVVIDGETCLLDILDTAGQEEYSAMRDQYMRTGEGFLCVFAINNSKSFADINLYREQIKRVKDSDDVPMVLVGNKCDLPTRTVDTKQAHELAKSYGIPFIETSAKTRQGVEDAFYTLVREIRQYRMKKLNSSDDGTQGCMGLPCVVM
Sequence of NRAS G12C (P62937 whole entry): as the sequence (P62937 whole entry) above
Protocol: as §1, §2, §3, §4, §5

Structure (SMILES) | IC50 ([1]; Homo sapiens, CAPAN-1, 120 h) | IC50 (KRAS G12C) | IC50 (KRAS G12D) | IC50 (KRAS G12S) | IC50 (KRAS G12V) | IC50 (KRAS G13C) | IC50 (KRAS G13D) | IC50 (KRAS WT) | IC50 (NRAS G12C) | IC50 [1]
CCn1c(-c2cccnc2[C@H](C)OC)c2c3cc(ccc31)-c1csc(n1)C[C@H](NC(=O)[C@H](C(C)C)N1CCC3(CCN(C)C3)C1=O)C(=O)N1CCC[C@H](N1)C(=O)OCC(C)(C)C2 (stereo partly drawn) [Compound A213] | > 10000 nM | 1000 to 10000 nM | 1000 to 10000 nM | 1000 to 10000 nM | > 10000 nM | 1000 to 10000 nM | 1000 to 10000 nM | 1000 to 10000 nM | 1000 to 10000 nM | 
CCn1c(-c2cccnc2[C@H](C)OC)c2c3cc(ccc31)-c1cc(O)cc(c1)C[C@H](NC(=O)[C@H](C(C)C)N(C)C(=O)[C@@H]1NC[C@@H]3C[C@@H]31)C(=O)N1CCC[C@H](N1)C(=O)OCC(C)(C)C2 [Compound A217] | 100 to 1000 nM | 10 to 100 nM | 100 to 1000 nM | 10 to 100 nM | 100 to 1000 nM | 10 to 100 nM | 10 to 100 nM | 10 to 100 nM | 10 to 100 nM | 
CCn1c(-c2cccnc2[C@H](C)OC)c2c3cc(ccc31)-c1cc(O)cc(c1)C[C@H](NC(=O)[C@H](C(C)C)N(C)C(=O)[C@H]1CNC[C@@H]1C)C(=O)N1CCC[C@H](N1)C(=O)OCC(C)(C)C2 [Compound A251] | > 10000 nM | 100 to 1000 nM | 100 to 1000 nM | 100 to 1000 nM | 100 to 1000 nM | 10 to 100 nM | 10 to 100 nM | 100 to 1000 nM | 100 to 1000 nM | 
CCn1c(-c2cccnc2[C@H](C)OC)c2c3cc(ccc31)-c1cc(O)cc(c1)C[C@H](NC(=O)C(C)=C(C)C)C(=O)N1CCC[C@H](N1)C(=O)OCC(C)(C)C2 [Compound A398] | 1000 to 10000 nM | 1000 to 10000 nM | > 10000 nM | 1000 to 10000 nM | 1000 to 10000 nM | 100 to 1000 nM | 1000 to 10000 nM | 1000 to 10000 nM | 1000 to 10000 nM | 
CCn1c(-c2cccnc2[C@H](C)OC)c2c3cc(ccc31)-c1cccc(c1)C[C@H](NC(=O)[C@H](C(C)C)N(C)C(=O)[C@@H]1CCN(C3COC3)C1)C(=O)N1CCC[C@H](N1)C(=O)OCC(C)(C)C2 [Compound A206] | > 10000 nM | 1000 to 10000 nM | > 10000 nM | > 10000 nM | > 10000 nM | 1000 to 10000 nM | 1000 to 10000 nM | 1000 to 10000 nM | 1000 to 10000 nM | 
CCn1c(-c2cccnc2[C@H](C)OC)c2c3cc(ccc31)-c1cc(O)cc(c1)C[C@H](NC(=O)[C@H](C(C)C)N(C)C(=O)C1CCCC1)C(=O)N1CCC[C@H](N1)C(=O)OCC(C)(C)C2 [Compound A219] | 100 to 1000 nM | 10 to 100 nM | 100 to 1000 nM | 10 to 100 nM | 10 to 100 nM | 10 to 100 nM | 100 to 1000 nM | 10 to 100 nM | 10 to 100 nM | 
CCn1c(-c2cccnc2[C@H](C)OC)c2c3cc(ccc31)-c1cc(O)cc(c1)C[C@H](NC(=O)C13CCCC1C3(F)F)C(=O)N1CCC[C@H](N1)C(=O)OCC(C)(C)C2 (stereo partly drawn) [Compound A180] | 1000 to 10000 nM | 1000 to 10000 nM | > 10000 nM | 1000 to 10000 nM | 1000 to 10000 nM | 100 to 1000 nM | 1000 to 10000 nM | 1000 to 10000 nM | 1000 to 10000 nM | 
CCn1c(-c2cccnc2[C@H](C)OC)c2c3cc(ccc31)-c1cc(O)cc(c1)C[C@H](NC(=O)[C@H](C(C)C)N(C)C(=O)C1CNCCO1)C(=O)N1CCC[C@H](N1)C(=O)OCC(C)(C)C2 (stereo partly drawn) [Compound A229] | 1000 to 10000 nM | 10 to 100 nM | 100 to 1000 nM | 100 to 1000 nM | 100 to 1000 nM | 10 to 100 nM | 10 to 100 nM | 100 to 1000 nM | 10 to 100 nM | 
CO[C@@H](C)c1ncccc1-c1c2c3cc(ccc3n1CC(F)(F)F)-c1csc(n1)C[C@H](NC(=O)[C@H](C(C)C)N(C)C(=O)N1CC(N(C)C)C1)C(=O)N1CCC[C@H](N1)C(=O)OCC(C)(C)C2 [Compound A303] |  | 10 to 100 nM | 100 to 1000 nM | 100 to 1000 nM | 100 to 1000 nM | 100 to 1000 nM | 100 to 1000 nM | 100 to 1000 nM | 10 to 100 nM | 10 to 100 nM
CCn1c(-c2cccnc2[C@H](C)OC)c2c3cc(ccc31)-c1csc(n1)C[C@H](NC(=O)[C@H](C(C)C)N(C)C(=O)N1CC(OC)C1)C(=O)N1CCC[C@H](N1)C(=O)OCC(C)(C)C2 [Compound A205] |  | 10 to 100 nM | 100 to 1000 nM | 100 to 1000 nM | 100 to 1000 nM | 100 to 1000 nM | 100 to 1000 nM | 100 to 1000 nM | 10 to 100 nM | 10 to 100 nM
CCn1c(-c2cccnc2[C@H](C)OC)c2c3cc(ccc31)-c1cc(O)cc(c1)C[C@H](NC(=O)[C@H](C(C)C)N(C)C(=O)OCc1ccccc1)C(=O)N1CCC[C@H](N1)C(=O)OCC(C)(C)C2 [Compound A185] | 1000 to 10000 nM | 1000 to 10000 nM | > 10000 nM | 1000 to 10000 nM | 1000 to 10000 nM | 100 to 1000 nM | 1000 to 10000 nM | 1000 to 10000 nM | 1000 to 10000 nM | 
CCn1c(-c2cccnc2[C@H](C)OC)c2c3cc(ccc31)-c1cc(O)cc(c1)C[C@H](NC(=O)[C@H](C(C)C)N(C)C(=O)C1CC13CNC3)C(=O)N1CCC[C@H](N1)C(=O)OCC(C)(C)C2 (stereo partly drawn) [Compound A140] | > 10000 nM | 10 to 100 nM | 10 to 100 nM | 10 to 100 nM | 10 to 100 nM | 10 to 100 nM | 10 to 100 nM | 10 to 100 nM | 10 to 100 nM | 
